This passage reports IC50 results from patent US20260159525A1, “TRICYCLIC HETEROCYCLES” (Merck Patent GmbH, priority 2021, published 2026).

Type in all cases: cell-based
The subject of one assay is YAP-TEAD interaction. As to the kind of experiment: SK-HEP-1 reporter assay (8x TEAD responsive elements driving NanoLuc luciferase). The conditions noted are these: Homo sapiens, SK-HEP1, SK-HEP-1 cells, 24 hour incubation. The procedure: To identify inhibitors of YAP-TEAD interaction, 8× TEAD responsive elements driving the NanoLuc® luciferase gene were stably integrated into SK-HEP-1 cells (ECACC #: 91091816).
For the assay, cells were treated in duplicates with the test compounds in a 10-point dose, with the top concentration starting at 30 μM (final concentration in assay). After a 24 hour incubation at 37° C., 95% rH, and 5% CO2, a luciferase substrate/lysis reagent mix (NanoGlo™, Promega) was added to the cells, allowing the quantification of cellular luciferase activity.
Cell Media: The cells were cultured in the following media: MEM, +10% FBS, +1× GlutaMAX, +1 mM Sodium-Pyruvate, +100 μM Non-essential amino acids, +0.1 mg/ml Hygromycin. The media used for the assay was: MEM (w/o Phenol Red), +10% FBS, +1× GlutaMAX, +1 mM Sodium-Pyruvate, +100 μM Non-essential amino acids, +0.5% Pen/Strep
(§1) Reagents: The reagents used are listed below:
Cell culture: The cells were examined using an inverted microscope to check for health and cell density. To dissociate adherent cells, the monolayer of cells was washed once with pre-warmed PBS. After removing the PBS, 3 ml pre-warmed Accutase® was added to a F75 flask, dispersed evenly and the flask was allowed to sit in incubator for ˜4-5 minutes.
(§2) When a single cell suspension was obtained, 7 ml of prewarmed growth media was added and resuspended with the cells. The cell suspension was transferred to a sterile 15 ml conical centrifuge tube, and spun for 5 min at 300×g, RT. The supernatant was discarded and the pellet was resuspended in 10 ml of pre-warmed growth media.
(§3) The total cell count was determined, and 20 μl of the desired cell number was added to each well of a 384 well plate using a Multidrop Combi. The plates were then incubated for 24 hours at 37° C., 95% rH, and 5% CO2.
(§4) Compound treatment: 24 hours after seeding, the cells were treated with compounds.
(§5) A 1:333 dilution of compounds, diluted in DMSO, was made to get a final concentration of 0.3% DMSO per well. To transfer the compounds to the assay plate, 120 nl was shot from Labcyte low dead volume plates to the cell plates containing 20 μl media/well with the ECHO 555 liquid handling system. After treatment, the cells were fed with 20 μl fresh pre-warmed assay media using a Multidrop combi.
The assay plates were then incubated for another 24 h at 37° C., 95% rH, and 5% CO2.
Luciferase readout: 24 h after treatment, the plates were taken out of the incubator and were allowed to equilibrate to RT. 30 μl of NanoGlo® reagent was added to the plates in the dark. Plates were shaken for 20 min on a Teleshake (˜1500 rpm) in the dark. The luminescence was then measured using an EnVision microplate reader. The IC50 values were generated using Genedata Screener®.
(A reporter such as luciferase makes a cellular process visible.)

The next assay concerns SW620 Yap KO cells. As to the kind of experiment: Viability assay in SW620 Yap KO (Yap independent) cells, CyQUANT. As to conditions: Homo sapiens, SW-620, SW620 YAP and TAZ knocked out (YAP independent), 96 hour incubation, n.d. (x) = not detectable below threshold x. The method, then: (§6) Viability Assay in NCI-H226 (Yap-Dependent) and SW620 Yap KO (Yap Independent) Cells
(§7) The ability of YAP-TEAD inhibitors to inhibit tumor cell growth was evaluated using two different cell lines: NCI-H226, which is a YAP dependent cell line, and SW620 cells, where YAP and TAZ were knocked out using CRISPR to generate a YAP independent cell line.
(§8) For the assay, cells were treated in duplicates with the test compounds in a 10-point dose, 1:3 dilution steps, with the top concentration starting at 30 μM (final concentration in assay). After a 96 hour incubation at 37° C., 95% rH, and 5% CO2, a cell-permeant DNA-binding dye that stains only healthy cells (CyQUANT®, Promega) was added to the cells, allowing the quantification of cell viability.
(§9) Cell Media: The NCI-H226 cells were cultured in the following media: RPMI 1640, +10% FBS, +1× GlutaMAX, +10 mM HEPES, +0.5% Pen/Strep. The SW620-KO cells were cultured in the following media: DMEM/F-12, +10% FBS, +1× GlutaMAX, +10 mM HEPES, +0.5% Pen/Strep.
as §1
(§10) Cell culture: The cells were examined using an inverted microscope to check for health, cell density, etc. To dissociate adherent cells, the monolayer of cells was washed once with pre-warmed PBS. After removing the PBS, 3 ml pre-warmed Accutase was added to a F75 flask, dispersed evenly and the flask was allowed to sit in incubator for ˜4-5 minutes.
as §2, §3, §4, §5
(§11) The assay plates were then incubated for 96 h at 37° C., 95% rH, and 5% CO2.
(§12) 96 h after treatment 30 μl of CyQuant® reagent was added to the assay plates using a Multidrop combi in the dark. The plates were then incubated for 1 hour at 37° C., 95% rH and 5% CO2. Thereafter, the assay plates were removed from the incubator and allowed to equilibrate to RT for 30 min in the dark without lid. Finally, they were measured using an EnVision microplate reader with a FITC bottom read program.

For a further assay, the system named is NCI-H226 cells. The experiment in a line: Viability assay in NCI-H226 (Yap-dependent) cells, CyQUANT. As to conditions: Homo sapiens, NCI-H226 YAP dependent cell line, 96 hour incubation. The method, then: as §6, §7, §8, §9, §1, §10, §2, §3, §4, §5, §11, §12
Setting [1] is: number, or n.d. (x) = not detectable below threshold x.

pIC50: −log10 of the molar value.

For orientation: pIC50 means the IC50 on a negative log10 scale, so that one unit is a factor of ten. The low end stands for a large IC50, the high end for a small IC50. As for `C[C@H](O)CNC(=O)c1cc2c3cn(C)nc3n(-c3ccc(C(F)(F)F)cc3)c2s1` [Compound 43, N-[(2S)-2-hydroxypropyl]-4-methyl-7-[4-(trifluoromethyl)phenyl]-9-thia-4,5,7-triazatricyclo[6.3.0.0^2,6]undeca-1(8),2,5,10-tetraene-10-carboxamide], the pIC50 in the assay with YAP-TEAD interaction (setting [1]) is less than 5.02; in the assay on SW620 Yap KO cells, less than 5.52; in the assay with NCI-H226 cells (group symbols), 7.00 to 9.00. As to `Cn1nc2c3cc(C(=O)O)sc3n(-c3ccc(C(F)(F)F)cc3)c2n1` [Compound 95, 4-methyl-7-[4-(trifluoromethyl)phenyl]-9-thia-3,4,5,7-tetraazatricyclo[6.3.0.0^2,6]undeca-1(8),2,5,10-tetraene-10-carboxylic acid], the pIC50 in the assay on YAP-TEAD interaction (group symbols) was 8.00 to 9.00; in the assay with SW620 Yap KO cells, less than 4.52; in the assay with NCI-H226 cells (group symbols) it was 7.00 to 9.00. Consider `CNC(=O)c1cc2c(s1)c1cn(C)nc1n2-c1ccc(C(F)(F)F)cc1` [Compound 1, N,10-dimethyl-7-[4-(trifluoromethyl)phenyl]-3-thia-7,9,10-triazatricyclo[6.3.0.0^2,6]undeca-1(11),2(6),4,8-tetraene-4-carboxamide], for which the pIC50 in the assay on YAP-TEAD interaction (group symbols) was 5.00 to 7.00; in the assay with NCI-H226 cells (group symbols), less than 5.00. The matching figures for `Cn1nc2c3sc(C(=O)O)cc3n(-c3ccc(C(F)(F)F)cc3)c2n1` [Compound 3, 4-methyl-7-[4-(trifluoromethyl)phenyl]-11-thia-3,4,5,7-tetraazatricyclo[6.3.0.0^2,6]undeca-1(8),2,5,9-tetraene-10-carboxylic acid]: 7.00 to 8.00 and 6.00 to 7.00. For `Cn1cc2c3cc(C(=O)N=S(C)(C)=O)sc3n(-c3ccc(C(F)(F)F)cc3)c2n1` [Compound 34, N-[dimethyl(oxo)-λ^6-sulfanylidene]-4-methyl-7-[4-(trifluoromethyl)phenyl]-9-thia-4,5,7-triazatricyclo[6.3.0.0^2,6]undeca-1(8),2,5,10-tetraene-10-carboxamide], in that order: 5.00 to 7.00 and 6.00 to 7.00. As for `COCC[C@@H](CO)NC(=O)c1cc2c3cn(C)nc3n(-c3ccc(C(F)(F)F)cc3)c2s1` (single isomer, unassigned) [Compound 59], the pIC50 in the assay on YAP-TEAD interaction (setting [1]) is less than 6.52; with NCI-H226 cells (group symbols), 6.00 to 7.00. Turning to `Cn1cc2c3cc(C(=O)NCCOCCOCCNC(=O)OC(C)(C)C)sc3n(-c3ccc(C(F)(F)F)cc3)c2n1` [Compound 88, tert-butyl N-(2-{2-[2-({4-methyl-7-[4-(trifluoromethyl)phenyl]-9-thia-4,5,7-triazatricyclo[6.3.0.0^2,6]undeca-1(8),2,5,10-tetraen-10-yl}formamido)ethoxy]ethoxy}ethyl)carbamate], the pIC50 was less than 4.52 in the assay with YAP-TEAD interaction (setting [1]) and 7.06 in the assay with NCI-H226 cells (printed number). Regarding `Cn1cc2c3cc(C(=O)O)sc3n([C@H]3CC[C@@H](C(F)(F)F)CC3)c2n1` [Compound 51, 4-methyl-7-[(1s,4s)-4-(trifluoromethyl)cyclohexyl]-9-thia-4,5,7-triazatricyclo[6.3.0.0^2,6]undeca-1(8),2,5,10-tetraene-10-carboxylic acid], the results for the pIC50 with YAP-TEAD interaction (group symbols) and in the assay on SW620 Yap KO cells were 5.00 to 7.00 and less than 4.52, respectively. As to `Cn1cc2c3sc(C(=O)O)cc3n(-c3ccc(C(F)(F)F)cc3)c2n1` [Compound 2, 10-methyl-7-[4-(trifluoromethyl)phenyl]-3-thia-7,9,10-triazatricyclo[6.3.0.0^2,6]undeca-1(11),2(6),4,8-tetraene-4-carboxylic acid], the pIC50 with YAP-TEAD interaction (group symbols) was 7.00 to 8.00; with NCI-H226 cells (group symbols) it was 6.00 to 7.00. Consider `CNC(=O)c1cc2c(s1)c1nn(C)nc1n2-c1ccc(C(F)(F)F)cc1` [Compound 5, N,4-dimethyl-7-[4-(trifluoromethyl)phenyl]-11-thia-3,4,5,7-tetraazatricyclo[6.3.0.0^2,6]undeca-1(8),2,5,9-tetraene-10-carboxamide], for which the pIC50 with YAP-TEAD interaction (group symbols) was less than 5.00; in the assay on NCI-H226 cells (group symbols), 5.00 to 6.00.

With `Cn1nc2c3sc(C(=O)NC(CO)c4ccccn4)cc3n(-c3ccc(C(F)(F)F)cc3)c2n1` (stereo not drawn) [Compound 4, N-[2-hydroxy-1-(pyridin-2-yl)ethyl]-4-methyl-7-[4-(trifluoromethyl)phenyl]-11-thia-3,4,5,7-tetraazatricyclo[6.3.0.0^2,6]undeca-1(8),2,5,9-tetraene-10-carboxamide], the results for the pIC50 with YAP-TEAD interaction (group symbols) and in the assay with NCI-H226 cells (group symbols) were less than 5.00 and 5.00 to 6.00, respectively. On to `Cn1cc2c3cc(C(=O)N=[S@@](C)(=O)CCCO)sc3n(-c3ccc(C(F)(F)F)cc3)c2n1` (single isomer, unassigned) [Compound 61], for which the values for the pIC50 with YAP-TEAD interaction (setting [1]) and with NCI-H226 cells (group symbols) were less than 5.02 and 6.00 to 7.00, respectively. With `CNC(=O)c1cc2c3cn(C)nc3n(-c3ccc(C(F)(F)F)cc3)c2s1` [Compound 32, N,4-dimethyl-7-[4-(trifluoromethyl)phenyl]-9-thia-4,5,7-triazatricyclo[6.3.0.0^2,6]undeca-1(8),2,5,10-tetraene-10-carboxamide], the figures for the pIC50 in the assay with YAP-TEAD interaction (group symbols) and with NCI-H226 cells (group symbols) were 7.00 to 8.00 and 7.00 to 9.00, respectively. The compound `Cn1nc2c3sc(C(=O)NCCO)cc3n(-c3ccc(C(F)(F)F)cc3)c2n1` [Compound 7, N-(2-hydroxyethyl)-4-methyl-7-[4-(trifluoromethyl)phenyl]-11-thia-3,4,5,7-tetraazatricyclo[6.3.0.0^2,6]undeca-1(8),2,5,9-tetraene-10-carboxamide] gave a pIC50 in the assay with YAP-TEAD interaction (group symbols) of less than 5.00. The compound `C[C@H](CO)NC(=O)c1cc2c(s1)c1cn(C)nc1n2-c1ccc(C(F)(F)F)cc1` [Compound 16, N-[(2R)-1-hydroxypropan-2-yl]-10-methyl-7-[4-(trifluoromethyl)phenyl]-3-thia-7,9,10-triazatricyclo[6.3.0.0^2,6]undeca-1(11),2(6),4,8-tetraene-4-carboxamide] gave a pIC50 in the assay on YAP-TEAD interaction (group symbols) of less than 5.00. The compound `Cn1cc2c3cc(C(=O)N[C@H](CCO)c4ccccn4)sc3n(-c3ccc(C(F)(F)F)cc3)c2n1` (single isomer, unassigned) [Compound 90] gave a pIC50 in the assay with NCI-H226 cells (printed number) of 5.82. With `Cn1cc2c3cc(C(=O)N[C@@H](CO)c4ccccn4)sc3n(-c3ccc(C(F)F)cc3)c2n1` [Compound 101, 7-[4-(difluoromethyl)phenyl]-N-[(1R)-2-hydroxy-1-(pyridin-2-yl)ethyl]-4-methyl-9-thia-4,5,7-triazatricyclo[6.3.0.0^2,6]undeca-1(8),2,5,10-tetraene-10-carboxamide], the pIC50 with YAP-TEAD interaction (group symbols) is 5.00 to 7.00. On the same count and under the same terms, the value for `Cn1nc2c3sc(C(=O)NC4CC4)cc3n(-c3ccc(OC(F)(F)F)cc3)c2n1` [Compound 30, N-cyclopropyl-4-methyl-7-[4-(trifluoromethoxy)phenyl]-11-thia-3,4,5,7-tetraazatricyclo[6.3.0.0^2,6]deca-1(8),2,5,9-tetraene-10-carboxamide] was 5.00 to 7.00.
